The results in this text go back to publication PMC7180948, “New Insights into 4-Anilinoquinazolines as Inhibitors of Cardiac Troponin I–Interacting Kinase (TNNi3K)” (Molecules, 2020).

Holding throughout (test): biochemical
Set-up in all cases: KINOMEscan competition binding panel (Eurofins DiscoverX), single concentration, % inhibition
Common to all, as to conditions: read-out: 7 at 1 µM % inhibition

In one test the target is CASK (Homo sapiens, UniProt O14936). The procedure, abridged:
(§1)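 Selectivity profile from a KINOMEscan run against >400 human kinases; test concentration 1 µM.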

The target of a further test is MYLK2 (Homo sapiens, UniProt Q9H1R3). The gist of the method:
as §1

For a further test, the target named is IRAK1 (Homo sapiens, UniProt P51617). The procedure, abridged: as §1
The next test has as its target GRK1 (Homo sapiens, UniProt Q15835). The gist of the method: as §1
In test [1] the target is T1, ABL1(T315I)-nonphosphorylated (Homo sapiens, UniProt P00519, T315I).
T1 construct: nonphosphorylated
The gist of the method: as §1

In test [2] the target is T2, RPS6KA5(Kin.Dom.2-C-terminal) (Homo sapiens, UniProt O75582).
T2 construct: Kin.Dom.2-C-terminal
The gist of the method: as §1

Another test has as its target CAMK4 (Homo sapiens, UniProt Q16566). The gist of the method: as §1
A further test addresses ANKK1 (Homo sapiens, UniProt Q8NFD2). The gist of the method: as §1
For test [3], the target named is T3, ABL1(F317I)-nonphosphorylated (Homo sapiens, UniProt P00519, F317I).
T3 construct: nonphosphorylated
The gist of the method:
as §1

For another test, the target named is FLT3(ITD,D835V) (Homo sapiens, UniProt P36888, D835V/ITD). The procedure, abridged:
as §1

The target of another test is T4, ARK5 (Homo sapiens, UniProt O60285).
T4 construct: gene NUAK1
The gist of the method: as §1

In the next test the target is EGFR(G719S) (Homo sapiens, UniProt P00533, G719S). The procedure, abridged: as §1
Chain of EGFR(G719S) (P00533 whole entry G719S): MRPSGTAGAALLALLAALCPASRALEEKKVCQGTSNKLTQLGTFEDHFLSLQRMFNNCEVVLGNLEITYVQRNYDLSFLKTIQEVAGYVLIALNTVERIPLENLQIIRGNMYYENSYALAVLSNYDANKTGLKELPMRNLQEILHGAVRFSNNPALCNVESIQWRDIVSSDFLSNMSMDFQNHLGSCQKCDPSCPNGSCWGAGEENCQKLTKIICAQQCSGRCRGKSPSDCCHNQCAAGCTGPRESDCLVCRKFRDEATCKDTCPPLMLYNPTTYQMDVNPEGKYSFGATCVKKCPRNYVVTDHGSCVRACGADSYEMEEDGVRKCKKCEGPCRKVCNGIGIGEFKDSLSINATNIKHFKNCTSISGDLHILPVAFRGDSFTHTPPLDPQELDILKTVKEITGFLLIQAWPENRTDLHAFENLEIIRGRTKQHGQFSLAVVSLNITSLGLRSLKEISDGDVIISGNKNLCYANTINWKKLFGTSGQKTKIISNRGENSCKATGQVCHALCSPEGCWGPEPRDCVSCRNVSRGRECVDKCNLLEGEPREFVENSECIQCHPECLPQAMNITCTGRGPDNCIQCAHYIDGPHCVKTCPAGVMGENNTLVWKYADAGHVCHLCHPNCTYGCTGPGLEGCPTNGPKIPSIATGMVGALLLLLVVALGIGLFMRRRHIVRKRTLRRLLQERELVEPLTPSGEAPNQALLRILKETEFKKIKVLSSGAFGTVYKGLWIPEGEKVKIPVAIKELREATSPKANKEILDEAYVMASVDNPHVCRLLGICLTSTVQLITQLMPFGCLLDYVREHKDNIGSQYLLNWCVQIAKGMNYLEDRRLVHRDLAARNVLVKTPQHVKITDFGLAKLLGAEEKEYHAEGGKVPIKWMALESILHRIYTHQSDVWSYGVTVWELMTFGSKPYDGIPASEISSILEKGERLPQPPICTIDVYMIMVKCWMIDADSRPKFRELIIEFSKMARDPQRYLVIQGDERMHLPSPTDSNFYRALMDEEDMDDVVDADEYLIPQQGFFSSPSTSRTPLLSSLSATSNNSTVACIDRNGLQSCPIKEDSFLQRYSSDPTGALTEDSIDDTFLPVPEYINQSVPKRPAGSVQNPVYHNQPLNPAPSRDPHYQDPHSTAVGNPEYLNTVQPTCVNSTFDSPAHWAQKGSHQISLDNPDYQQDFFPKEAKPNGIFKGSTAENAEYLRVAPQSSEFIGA
Another test deals with T5, p38-delta (Homo sapiens, UniProt O15264).
T5 construct: gene MAPK13
The procedure, abridged: as §1

For another test, the target named is PIK3CB (Homo sapiens, UniProt P42338). The gist of the method: as §1
In a further test the target is GSK3B (Homo sapiens, UniProt P49841). The gist of the method: as §1
Chain of GSK3B (P49841 whole entry): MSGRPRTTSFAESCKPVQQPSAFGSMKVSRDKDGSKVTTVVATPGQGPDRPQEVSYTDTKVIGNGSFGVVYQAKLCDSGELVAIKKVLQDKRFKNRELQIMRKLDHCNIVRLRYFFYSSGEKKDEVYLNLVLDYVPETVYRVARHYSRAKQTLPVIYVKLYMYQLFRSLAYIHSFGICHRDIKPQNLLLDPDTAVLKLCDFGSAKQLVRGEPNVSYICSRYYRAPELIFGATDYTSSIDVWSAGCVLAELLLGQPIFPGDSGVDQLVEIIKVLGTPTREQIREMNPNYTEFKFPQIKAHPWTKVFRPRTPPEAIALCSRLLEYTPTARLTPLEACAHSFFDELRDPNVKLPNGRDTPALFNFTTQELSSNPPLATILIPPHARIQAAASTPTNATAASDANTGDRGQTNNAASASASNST
Another test deals with BMPR1B (Homo sapiens, UniProt O00238). The procedure, abridged: as §1
The next test addresses KIT(L576P) (Homo sapiens, UniProt P10721, L576P). The procedure, abridged: as §1
Another test deals with T6, PFTK1 (Homo sapiens, UniProt O94921).
T6 construct: gene CDK14
T6 sequence (O94921 whole entry): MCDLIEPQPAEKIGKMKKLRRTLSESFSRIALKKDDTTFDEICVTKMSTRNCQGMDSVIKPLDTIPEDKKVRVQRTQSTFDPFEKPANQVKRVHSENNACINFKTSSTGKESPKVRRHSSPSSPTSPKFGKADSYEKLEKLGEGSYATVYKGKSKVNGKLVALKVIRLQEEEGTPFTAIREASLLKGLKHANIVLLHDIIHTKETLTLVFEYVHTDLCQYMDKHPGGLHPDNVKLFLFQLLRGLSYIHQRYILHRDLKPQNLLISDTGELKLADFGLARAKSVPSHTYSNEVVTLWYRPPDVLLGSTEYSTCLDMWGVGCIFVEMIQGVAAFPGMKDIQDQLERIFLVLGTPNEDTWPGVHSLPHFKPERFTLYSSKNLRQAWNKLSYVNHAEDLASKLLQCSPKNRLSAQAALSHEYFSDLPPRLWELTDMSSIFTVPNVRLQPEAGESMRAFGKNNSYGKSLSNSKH
The gist of the method:
as §1

The next test deals with ACVR2A (Homo sapiens, UniProt P27037). The procedure, abridged: as §1
Chain of ACVR2A (P27037 whole entry): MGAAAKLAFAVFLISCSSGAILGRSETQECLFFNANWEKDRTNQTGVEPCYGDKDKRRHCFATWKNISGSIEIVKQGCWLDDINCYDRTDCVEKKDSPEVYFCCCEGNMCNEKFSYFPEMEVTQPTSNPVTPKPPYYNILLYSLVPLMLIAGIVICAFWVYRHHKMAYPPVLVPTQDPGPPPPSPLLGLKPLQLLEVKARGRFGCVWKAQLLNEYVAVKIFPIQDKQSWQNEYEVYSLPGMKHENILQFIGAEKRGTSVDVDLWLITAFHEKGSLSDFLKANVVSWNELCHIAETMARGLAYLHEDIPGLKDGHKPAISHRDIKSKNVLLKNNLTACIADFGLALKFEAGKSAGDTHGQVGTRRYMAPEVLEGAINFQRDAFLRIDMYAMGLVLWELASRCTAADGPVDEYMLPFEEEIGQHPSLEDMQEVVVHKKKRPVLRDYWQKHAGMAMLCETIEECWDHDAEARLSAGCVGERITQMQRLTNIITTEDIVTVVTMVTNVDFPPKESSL
A further test addresses T7, DLK (Homo sapiens, UniProt Q12852).
T7 construct: gene MAP3K12
The gist of the method: as §1

Another test has as its target TLK2 (Homo sapiens, UniProt Q86UE8). The procedure, abridged: as §1
Another test deals with BLK (Homo sapiens, UniProt P51451). The procedure, abridged: as §1
Chain of BLK (P51451 whole entry): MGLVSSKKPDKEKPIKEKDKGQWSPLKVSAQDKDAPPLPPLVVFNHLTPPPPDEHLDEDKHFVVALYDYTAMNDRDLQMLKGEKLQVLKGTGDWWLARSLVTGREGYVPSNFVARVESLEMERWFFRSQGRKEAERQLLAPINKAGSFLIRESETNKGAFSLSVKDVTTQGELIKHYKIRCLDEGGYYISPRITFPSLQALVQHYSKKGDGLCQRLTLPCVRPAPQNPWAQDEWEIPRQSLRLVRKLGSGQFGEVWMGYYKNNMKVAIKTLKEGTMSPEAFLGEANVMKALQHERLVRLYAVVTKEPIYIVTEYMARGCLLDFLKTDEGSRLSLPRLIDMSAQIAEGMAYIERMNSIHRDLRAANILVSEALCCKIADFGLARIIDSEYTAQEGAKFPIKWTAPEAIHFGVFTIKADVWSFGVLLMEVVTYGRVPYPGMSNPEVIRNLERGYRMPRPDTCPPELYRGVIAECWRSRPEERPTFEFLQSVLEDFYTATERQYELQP
For a further test, the target named is CLK3 (Homo sapiens, UniProt P49761). The procedure, abridged:
as §1

A further test deals with DMPK (Homo sapiens, UniProt Q09013). The procedure, abridged: as §1

Chain of CLK3 (P49761 whole entry): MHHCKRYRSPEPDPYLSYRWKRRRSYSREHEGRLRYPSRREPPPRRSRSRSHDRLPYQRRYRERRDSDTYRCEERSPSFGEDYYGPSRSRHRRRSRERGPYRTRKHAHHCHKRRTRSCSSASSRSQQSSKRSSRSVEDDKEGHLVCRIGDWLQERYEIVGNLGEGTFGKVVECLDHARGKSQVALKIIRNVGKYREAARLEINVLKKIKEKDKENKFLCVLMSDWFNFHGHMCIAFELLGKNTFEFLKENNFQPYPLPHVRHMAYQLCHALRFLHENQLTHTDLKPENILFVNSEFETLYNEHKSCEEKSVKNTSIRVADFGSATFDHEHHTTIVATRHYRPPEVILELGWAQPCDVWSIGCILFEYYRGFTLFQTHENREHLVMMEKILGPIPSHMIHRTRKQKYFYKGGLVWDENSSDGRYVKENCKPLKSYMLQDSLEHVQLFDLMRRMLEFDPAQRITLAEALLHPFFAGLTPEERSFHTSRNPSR
Chain of MYLK2 (Q9H1R3 whole entry): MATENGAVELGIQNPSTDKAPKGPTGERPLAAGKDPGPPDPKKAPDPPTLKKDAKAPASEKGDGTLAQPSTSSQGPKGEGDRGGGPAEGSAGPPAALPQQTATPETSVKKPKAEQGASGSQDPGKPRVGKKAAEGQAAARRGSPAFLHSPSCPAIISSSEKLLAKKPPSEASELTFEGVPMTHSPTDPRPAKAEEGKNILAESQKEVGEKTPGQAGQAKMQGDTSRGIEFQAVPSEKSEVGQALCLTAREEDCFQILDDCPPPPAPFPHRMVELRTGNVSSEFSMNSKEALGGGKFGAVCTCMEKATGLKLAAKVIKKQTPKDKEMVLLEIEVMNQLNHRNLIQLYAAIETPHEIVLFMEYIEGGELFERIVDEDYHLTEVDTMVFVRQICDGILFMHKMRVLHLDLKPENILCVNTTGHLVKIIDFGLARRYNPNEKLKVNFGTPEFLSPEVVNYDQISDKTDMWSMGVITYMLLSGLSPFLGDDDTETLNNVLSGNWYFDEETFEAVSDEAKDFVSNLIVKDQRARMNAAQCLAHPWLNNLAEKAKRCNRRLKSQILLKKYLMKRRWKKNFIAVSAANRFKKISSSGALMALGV
Chain of CAMK4 (Q16566 whole entry): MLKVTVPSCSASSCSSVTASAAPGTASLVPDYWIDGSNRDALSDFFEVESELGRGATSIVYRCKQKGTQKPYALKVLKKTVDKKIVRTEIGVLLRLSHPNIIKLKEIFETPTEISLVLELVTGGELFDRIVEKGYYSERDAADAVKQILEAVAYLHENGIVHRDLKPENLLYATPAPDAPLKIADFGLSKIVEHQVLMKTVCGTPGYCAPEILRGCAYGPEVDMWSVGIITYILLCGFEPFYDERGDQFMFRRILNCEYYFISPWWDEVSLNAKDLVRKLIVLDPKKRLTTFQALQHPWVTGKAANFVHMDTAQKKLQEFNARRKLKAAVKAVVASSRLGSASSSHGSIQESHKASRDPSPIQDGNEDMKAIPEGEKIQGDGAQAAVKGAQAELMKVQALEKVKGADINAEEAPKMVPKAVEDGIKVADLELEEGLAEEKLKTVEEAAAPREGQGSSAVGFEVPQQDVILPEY

Turning to `CNS(=O)(=O)c1ccc(N(C)C)c(Nc2ncnc3cc(OC)c(OC)cc23)c1` [compound 7, 3-((6,7-dimethoxyquinazolin-4-yl)amino)-4-(dimethylamino)-N-methylbenzenesulfonamide], the inhibition at 1 µM on CASK was found to be 0%; on MYLK2, 0%; at IRAK1, 68%; on GRK1, 0%; in test [1] it was 33%; in test [2] it was 0%. Also, the inhibition at 1 µM at CAMK4 is 0%; at ANKK1, 19%; in [3] it was 1%; at FLT3(ITD,D835V), 34%; on ARK5 it was 0%; on EGFR(G719S), 0%. The inhibition at 1 µM was 0% at p38-delta; 2% at PIK3CB; 0% at GSK3B; 34% on BMPR1B; 49% at KIT(L576P); 0% on PFTK1. In addition, the inhibition at 1 µM at ACVR2A is 0%; at DLK, 21%; on TLK2, 0%; on BLK it was 29%; at CLK3 it was 18%; at DMPK, 0%.
